# Source: patent US11117869B2, “Compounds, compositions and methods for treatment of myopia” (Aerie Pharmaceuticals, Inc., priority 2019, dated 2021)
# Key:
# [1] = Topical eye drop composition (Table 3): intraocular pressure; assay type: in vivo
# [2] = Topical eye drop composition (Table 3): allergic symptoms, dry eye, hyperemia, irritation
# myopia = assay: Topical eye drop composition (Table 3): myopia progression or onset; details: drop 2 times per day, human subject
smiles,measurement,setting,value
CN1C2CCC1CC(OC(=O)C(CO)c1cccc(Cl)c1)C2 (centres unmarked) [Compound E21],intraocular pressure,[1],substantially decreases
CN1C2CCC1CC(OC(=O)C(C)(CO)c1ccccc1)C2 (centres unmarked) [Compound E22R],"hyperemia, redness and ocular irritation",[2]; drop as needed,substantially decreases
CN1C2CCC1CC(NC(=O)C(CO)c1ccccc1)C2 (centres unmarked) [Compound E23],rate of myopia progression,myopia,substantially decreases
"CN1C2CCC1CC(NC(=O)[C@H](CN)c1ccc(CO)cc1)C2 (stereo partly drawn) [Compound E20S, (S)-3-amino-2-(4-(hydroxymethyl)phenyl)-N-((1R,3-endo,5S)-8-methyl-8-azabicyclo[3.2.]octan-3-yl)propanamide ditosylate]",allergic symptoms,[2]; in vivo,substantially decreases
same,intraocular pressure,[1],substantially decreases
